Measured values published in ChEMBL document CHEMBL1155271, “Synthesis, crystal structures and antibacterial activity studies of aza-derivatives of phytoalexin from cotton plant--gossypol” (2009).
≈ marks a conversion by molar mass, not a printed value. Calls of active or inactive are those of the source. No cut-off for these calls is given here.

How the values were obtained:
Assay type in all cases: functional
Micrococcus luteus [1] = experiment: Antimicrobial activity against Micrococcus luteus ATCC 10240 at 400 ug after 18 hrs by disk diffusion method; details: ATCC 10240, 18 h, read-out: DIZ
Staphylococcus aureus [2] = experiment: Antimicrobial activity against Methicillin susceptible Staphylococcus aureus 213/7 by twofold dilution technique
Staphylococcus aureus [3] = experiment: Antimicrobial activity against Staphylococcus aureus ATCC 6538 after 18 hrs by twofold dilution technique; details: ATCC 6538, 18 h
Staphylococcus aureus [4] = experiment: Antimicrobial activity against Staphylococcus aureus NCTC 4163 after 18 hrs by twofold dilution technique; details: NCTC 4163, 18 h
Staphylococcus aureus [5] = experiment: Antimicrobial activity against Staphylococcus aureus ATCC 25923 after 18 hrs by twofold dilution technique; details: ATCC 25923, 18 h
Bacillus subtilis [6] = experiment: Antimicrobial activity against Bacillus subtilis ATCC 6633 at 400 ug after 18 hrs by disk diffusion method; details: ATCC 6633, 18 h, read-out: DIZ
Staphylococcus aureus [7] = experiment: Antimicrobial activity against Methicillin susceptible Staphylococcus aureus 212/7 by twofold dilution technique
Enterococcus hirae [8] = experiment: Antimicrobial activity against Enterococcus hirae ATCC 10541 at 400 ug after 18 hrs by disk diffusion method
Staphylococcus aureus [9] = experiment: Antimicrobial activity against methicillin-resistant Staphylococcus aureus 141/6 by twofold dilution technique
Staphylococcus aureus [10] = experiment: Antimicrobial activity against methicillin-resistant Staphylococcus aureus 218/7 by twofold dilution technique
Staphylococcus aureus [11] = experiment: Antimicrobial activity against Staphylococcus aureus ATCC 29213 after 18 hrs by twofold dilution technique; details: ATCC 29213, 18 h
Bacillus subtilis [12] = experiment: Antimicrobial activity against Bacillus subtilis ATCC 6633 after 18 hrs by twofold dilution technique; details: ATCC 6633, 18 h
Bacillus cereus [13] = experiment: Antimicrobial activity against Bacillus cereus ATCC 11778 at 400 ug after 18 hrs by disk diffusion method; details: ATCC 11778, 18 h, read-out: DIZ
Staphylococcus aureus [14] = experiment: Antimicrobial activity against Methicillin susceptible Staphylococcus aureus 243/7 by twofold dilution technique
Staphylococcus aureus [15] = experiment: Antimicrobial activity against Methicillin susceptible Staphylococcus aureus 239/7 by twofold dilution technique
Micrococcus luteus [16] = experiment: Antimicrobial activity against Micrococcus luteus ATCC 10240 by twofold dilution technique
Staphylococcus aureus [17] = experiment: Antimicrobial activity against Staphylococcus aureus ATCC 6538 at 400 ug after 18 hrs by disk diffusion method; details: ATCC 6538, 18 h, read-out: DIZ
[18] = tested on: Staphylococcus epidermidis; experiment: Antimicrobial activity against Staphylococcus epidermidis ATCC 12228 at 400 ug after 18 hrs by disk diffusion method; details: ATCC 12228, 18 h, read-out: DIZ
Staphylococcus aureus [19] = experiment: Antimicrobial activity against Staphylococcus aureus NCTC 4163 at 400 ug after 18 hrs by disk diffusion method; details: NCTC 4163, 18 h, read-out: DIZ
Staphylococcus aureus [20] = experiment: Antimicrobial activity against Methicillin susceptible Staphylococcus aureus 206/7 by twofold dilution technique
Staphylococcus aureus [21] = experiment: Antimicrobial activity against methicillin-resistant Staphylococcus aureus 144/6 by twofold dilution technique
Staphylococcus aureus [22] = experiment: Antimicrobial activity against methicillin-resistant Staphylococcus aureus 146/6 by twofold dilution technique
Enterococcus hirae [23] = experiment: Antimicrobial activity against Enterococcus hirae ATCC 10541 after 18 hrs by twofold dilution technique; details: ATCC 10541, 18 h
Staphylococcus aureus [24] = experiment: Antimicrobial activity against Methicillin susceptible Staphylococcus aureus 237/7 by twofold dilution technique
Staphylococcus aureus [25] = experiment: Antimicrobial activity against Methicillin susceptible Staphylococcus aureus 207/7 by twofold dilution technique
Micrococcus luteus [26] = experiment: Antimicrobial activity against Micrococcus luteus ATCC 9341 at 400 ug after 18 hrs by disk diffusion method
Staphylococcus aureus [27] = experiment: Antimicrobial activity against methicillin-resistant Staphylococcus aureus 236/7 by twofold dilution technique
Micrococcus luteus [28] = experiment: Antimicrobial activity against Micrococcus luteus ATCC 9341 after 18 hrs by twofold dilution technique; details: ATCC 9341, 18 h
Staphylococcus aureus [29] = experiment: Antimicrobial activity against methicillin-resistant Staphylococcus aureus 200/7 by twofold dilution technique
Staphylococcus aureus [30] = experiment: Antimicrobial activity against Staphylococcus aureus ATCC 29213 at 400 ug after 18 hrs by disk diffusion method; details: ATCC 29213, 18 h, read-out: DIZ
Staphylococcus aureus [31] = experiment: Antimicrobial activity against Methicillin susceptible Staphylococcus aureus 238/7 by twofold dilution technique
Bacillus cereus [32] = experiment: Antimicrobial activity against Bacillus cereus ATCC 11778 after 18 hrs by twofold dilution technique; details: ATCC 11778, 18 h
Staphylococcus aureus [33] = experiment: Antimicrobial activity against Methicillin susceptible Staphylococcus aureus 208/7 by twofold dilution technique
Staphylococcus aureus [34] = experiment: Antimicrobial activity against methicillin-resistant Staphylococcus aureus 143/6 by twofold dilution technique
[35] = tested on: Staphylococcus epidermidis; experiment: Antimicrobial activity against Staphylococcus epidermidis ATCC 12228 by twofold dilution technique
Staphylococcus aureus [36] = experiment: Antimicrobial activity against Methicillin susceptible Staphylococcus aureus 242/7 by twofold dilution technique
Staphylococcus aureus [37] = experiment: Antimicrobial activity against methicillin-resistant Staphylococcus aureus 140/6 by twofold dilution technique
Staphylococcus aureus [38] = experiment: Antimicrobial activity against Staphylococcus aureus ATCC 25923 at 400 ug after 18 hrs by disk diffusion method; details: ATCC 25923, 18 h, read-out: DIZ
Staphylococcus aureus [39] = experiment: Antimicrobial activity against methicillin-resistant Staphylococcus aureus 136/6 by twofold dilution technique
Staphylococcus aureus [40] = experiment: Antimicrobial activity against methicillin-resistant Staphylococcus aureus 217/7 by twofold dilution technique

| Structure (SMILES) | zone of inhibition at 400 µg/disc (Micrococcus luteus [1]) | MIC (Staphylococcus aureus [2]) | MIC (Staphylococcus aureus [3]) | MIC (Staphylococcus aureus [4]) | MIC (Staphylococcus aureus [5]) | zone of inhibition at 400 µg/disc (Bacillus subtilis [6]) | MIC (Staphylococcus aureus [7]) | MIC (Staphylococcus aureus [9]) | MIC (Staphylococcus aureus [10]) | MIC (Staphylococcus aureus [11]) | MIC (Bacillus subtilis [12]) | zone of inhibition at 400 µg/disc (Bacillus cereus [13]) | MIC (Staphylococcus aureus [14]) | MIC (Staphylococcus aureus [15]) | MIC (Micrococcus luteus [16]) | zone of inhibition at 400 µg/disc (Staphylococcus aureus [17]) | zone of inhibition at 400 µg/disc [18] | zone of inhibition at 400 µg/disc (Staphylococcus aureus [19]) | MIC (Staphylococcus aureus [20]) | MIC (Staphylococcus aureus [21]) | also measured |
| --- | --- | --- | --- | --- | --- | --- | --- | --- | --- | --- | --- | --- | --- | --- | --- | --- | --- | --- | --- | --- | --- |
| Cc1cc2c(C(C)C)c(O)c(O)c(C=O)c2c(O)c1-c1c(C)cc2c(C(C)C)c(O)c(O)c(C=O)c2c1O [GOSSYPOL] | 16 mm | 50 µg/mL (≈ 96.4 µM) | 12.5 µg/mL (≈ 24.1 µM) | 50 µg/mL (≈ 96.4 µM) | 25 µg/mL (≈ 48.2 µM) | 15 mm | 50 µg/mL (≈ 96.4 µM) | 50 µg/mL (≈ 96.4 µM) | 50 µg/mL (≈ 96.4 µM) | 12.5 µg/mL (≈ 24.1 µM) | 100 µg/mL (≈ 193 µM) | 15 mm | 25 µg/mL (≈ 48.2 µM) | 25 µg/mL (≈ 48.2 µM) | 50 µg/mL (≈ 96.4 µM) | 14 mm | 16 mm | 16 mm | 25 µg/mL (≈ 48.2 µM) | 50 µg/mL (≈ 96.4 µM) | zone of inhibition at 400 µg/disc (Enterococcus hirae [8]; ATCC 10541, 18 h, read-out: DIZ): 14 mm; MIC (Staphylococcus aureus [22]): 50 µg/mL (≈ 96.4 µM); MIC (Enterococcus hirae [23]): 25 µg/mL (≈ 48.2 µM); MIC (Staphylococcus aureus [24]): 25 µg/mL (≈ 48.2 µM); MIC (Staphylococcus aureus [25]): 50 µg/mL (≈ 96.4 µM); zone of inhibition at 400 µg/disc (Micrococcus luteus [26]; ATCC 9341, 18 h, read-out: DIZ): 12 mm; MIC (Staphylococcus aureus [27]): 50 µg/mL (≈ 96.4 µM); MIC (Micrococcus luteus [28]): 25 µg/mL (≈ 48.2 µM); MIC (Staphylococcus aureus [29]): 50 µg/mL (≈ 96.4 µM); zone of inhibition at 400 µg/disc (Staphylococcus aureus [30]): 15 mm; MIC (Staphylococcus aureus [31]): 25 µg/mL (≈ 48.2 µM); MIC (Bacillus cereus [32]): 25 µg/mL (≈ 48.2 µM); MIC (Staphylococcus aureus [33]): 50 µg/mL (≈ 96.4 µM); MIC (Staphylococcus aureus [34]): 50 µg/mL (≈ 96.4 µM); MIC [35]: 100 µg/mL (≈ 193 µM); MIC (Staphylococcus aureus [36]): 12.5 µg/mL (≈ 24.1 µM); MIC (Staphylococcus aureus [37]): 50 µg/mL (≈ 96.4 µM); zone of inhibition at 400 µg/disc (Staphylococcus aureus [38]): 15 mm; MIC (Staphylococcus aureus [39]): 50 µg/mL (≈ 96.4 µM); MIC (Staphylococcus aureus [40]): 50 µg/mL (≈ 96.4 µM) |
| COCCOCCOCCN/N=C/c1c(O)c(O)c(C(C)C)c2cc(C)c(-c3c(C)cc4c(C(C)C)c(O)c(O)c(/C=N/NCCOCCOCCOC)c4c3O)c(O)c12 | 13 mm | 400 µg/mL (≈ 477 µM) | 200 µg/mL (≈ 238 µM) | 200 µg/mL (≈ 238 µM) | 200 µg/mL (≈ 238 µM) | 11 mm | 400 µg/mL (≈ 477 µM) | 400 µg/mL (≈ 477 µM) | 400 µg/mL (≈ 477 µM) | 200 µg/mL (≈ 238 µM) | > 400 µg/mL | 12 mm | 400 µg/mL (≈ 477 µM) | 400 µg/mL (≈ 477 µM) | 400 µg/mL (≈ 477 µM) | 11 mm | 14 mm | 11 mm | 200 µg/mL (≈ 238 µM) | 400 µg/mL (≈ 477 µM) | diameter of the inhibition zone (DIZ) (Enterococcus hirae [8]): inactive; MIC (Staphylococcus aureus [22]): 200 µg/mL (≈ 238 µM); MIC (Enterococcus hirae [23]): 200 µg/mL (≈ 238 µM); MIC (Staphylococcus aureus [24]): 400 µg/mL (≈ 477 µM); MIC (Staphylococcus aureus [25]): 400 µg/mL (≈ 477 µM); diameter of the inhibition zone (DIZ) (Micrococcus luteus [26]): inactive; MIC (Staphylococcus aureus [27]): 100 µg/mL (≈ 119 µM); MIC (Micrococcus luteus [28]): 400 µg/mL (≈ 477 µM); MIC (Staphylococcus aureus [29]): 400 µg/mL (≈ 477 µM); zone of inhibition at 400 µg/disc (Staphylococcus aureus [30]): 12 mm; MIC (Staphylococcus aureus [31]): 400 µg/mL (≈ 477 µM); MIC (Bacillus cereus [32]): 100 µg/mL (≈ 119 µM); MIC (Staphylococcus aureus [33]): 400 µg/mL (≈ 477 µM); MIC (Staphylococcus aureus [34]): 400 µg/mL (≈ 477 µM); MIC [35]: > 400 µg/mL; MIC (Staphylococcus aureus [36]): 100 µg/mL (≈ 119 µM); MIC (Staphylococcus aureus [37]): 200 µg/mL (≈ 238 µM); zone of inhibition at 400 µg/disc (Staphylococcus aureus [38]): 12 mm; MIC (Staphylococcus aureus [39]): 200 µg/mL (≈ 238 µM); MIC (Staphylococcus aureus [40]): 200 µg/mL (≈ 238 µM) |
